Source: article PMC11477194, “3-Alkoxy-1-Benzyl-5-Nitroindazole Derivatives Are Potent Antileishmanial Compounds” (International Journal of Molecular Sciences, 2024)
Where two headings read alike, the source gives them in different places.

Columns and labels:
[1] = Cytotoxicity in mouse peritoneal macrophages (resazurin); assay type: cell-based; conditions: concentration that causes lysis of 50% of BALB/c mouse peritoneal macrophages
Experimental: To obtain peritoneal macrophages, the mice were sacrificed by cervical dislocation, and the resident cells in the peritoneum were extracted by washing with RPMI (Roswell Park Memorial Institute, Buffalo, NY, USA) medium and cold (4 °C) supplemented with 10% FBS and antibiotics (sodium penicillin 200 IU/mL and streptomycin 200 μg/mL). Cell concentration was calculated using Neubauer chamber counts in an optical microscope (Motic, Xiamen, China) with a 40× objective and 10× eyepieces (400× magnification).
Cytotoxicity in mouse peritoneal macrophages: Peritoneal macrophages were adjusted to 10^5 macrophages/mL, and 200 μL was seeded per well in a 96-well plate and incubated at 33 °C and 5% CO2 for 2 h. Subsequently, the non-attached cells were discarded, and the monolayer was washed with PBS. The compounds were tested in serial dilutions of 1/2.5 (650–1.0 μM). The treated cultures were incubated for 48 h at 33 °C in a humidified atmosphere containing 5% CO2.
(§1) Every concentration of the test compounds was assessed in quadruplicate.
(§2) Cell viability was assessed using the resazurin transformation method. After the incubation period, 20 μL of 3 mM resazurin solution prepared in sterile PBS was added to each well. Reading was performed at 540 nm excitation and 590 nm emission wavelengths after 8 h of incubation in a 96-well plate reader (SUMA®, Habana, Cuba). The mean fluorescence intensity was calculated for each concentration. From the mean values of fluorescence and the corresponding product concentrations, a non-linear fit to the Emax sigmoid model was performed, and the mean inhibitory concentrations (IC50), mean effective concentrations (EC50), and the mean cytotoxic concentration (CC50) were estimated. The selectivity index was calculated as SIp = CC50/IC50 and SIa = CC50/EC50 for the promastigote and amastigote stages, respectively.

[2] = test system: L. amazonensis promastigotes; assay: Susceptibility assay in promastigotes, L. amazonensis; assay type: cell-based; conditions: 72 h, read-out: IC50 ± SD
Source text: (§3) The strains used in this research were MHOM/BR/77/LTB0016 of L. amazonensis from the Pedro Kouri Institute of Tropical Medicine Cuba strains collection, MHOM/FR/78/LEM75 of L. infantum from the Department of Parasitology, Faculty of Pharmacy of the Complutense University of Madrid Spain, and MNYC/BZ/62/M379 of L. mexicana from the Laboratory of Molecular Immunobiochemistry and Heart Diseases UNAM-INC Mexico Research Unit. The parasites were obtained from the skin lesions of previously infected BALB/c mice and maintained at 26 °C in Schneider medium (SIGMA, St. Louis, MO, USA) and supplemented with antibiotics (penicillin sodium 200 IU/mL and streptomycin 200 μg/mL SIGMA, St. Louis, MO, USA) and 10% fetal bovine serum (FBS, SIGMA, St. Louis, MO, USA), and inactivated with heat (56 °C, 30 min). The promastigotes, once isolated, were kept in the exponential multiplication phase by successive subcultures every 3 or 4 days until the time of use.
(§4) Susceptibility assay in promastigotes: Promastigotes culture in the exponential growth phase were seeded in 96-well plates (10^6 parasites/mL) at a final volume of 200 μL/well. Compounds were tested in serial 1/2.5 dilutions (130–0.2 μM). The treated cultures were incubated for 72 h at 26 °C.
as §1, §2

[3] = test system: L. infantum promastigotes; assay: Susceptibility assay in promastigotes, L. infantum; assay type: cell-based; conditions: 72 h, read-out: IC50 ± SD
Source text: as §3, §4, §1, §2

[4] = test system: L. mexicana promastigotes; assay: Susceptibility assay in promastigotes, L. mexicana; assay type: cell-based; conditions: 72 h
Source text: as §3, §4, §1, §2

[5] = test system: L. amazonensis intracellular amastigotes; assay: Intracellular amastigote assay, L. amazonensis; assay type: cell-based; conditions: read-out: EC50 ± SD
Source text: as §3
(§5) Intracellular amastigote assay: Macrophages were seeded in 96-well plates at an initial density of 10^5 cells/mL in a final volume of 200 µL per well. After 2 h of incubation at 33 °C and 5% CO2, the cell monolayer was infected with a culture of promastigotes in the stationary phase of growth at a ratio of 10:1 (promastigotes: macrophages) and incubated under the same conditions for 4 h. The compounds were tested in serial dilutions of 1/2.5 (15–0.02 μM). The treated cultures were then incubated for 48 h under similar conditions. After incubation, the RPMI medium was removed and replaced with Schneider’s medium. Cultures were incubated for 72 h at 26 °C to allow the surviving amastigotes to transform into promastigotes and replicate.
as §1, §2

[6] = test system: L. infantum intracellular amastigotes; assay: Intracellular amastigote assay, L. infantum; assay type: cell-based; conditions: read-out: EC50 ± SD
Source text: as §3, §5, §1, §2

[7] = test system: L. mexicana intracellular amastigotes; assay: Intracellular amastigote assay, L. mexicana; assay type: cell-based; conditions: Leishmania mexicana, read-out: EC50 ± SD, intracellular amastigotes, L. mexicana
Source text: as §3, §5, §1, §2

[8] = test system: promastigotes of L. amazonensis; assay: Scanning and transmission electron microscopy of treated promastigotes; assay type: cell-based
Source text: The concentrations of compounds selected for the study of structural and ultrastructural damage were those corresponding to IC50, ½ IC50, and ¼ IC50 for compound NV8 (reported in this study) and the previously reported compound VATR 131 [21]. The procedure for the treatment of cultures was the same as that described above for the in vitro tests on promastigotes of L. amazonensis. Two negative controls were used: a DMSO-treated culture (0.1%) and an untreated culture.
At the end of the exposure to the compounds, the parasites were washed once with PBS and immediately fixed with 2.5% glutaraldehyde in PBS for 1 h at room temperature. After a thorough wash with PBS, the parasites were fixed with 1% OsO4 in PBS at 4 °C for 1 h and then washed with PBS. The parasites were dehydrated in increasing concentrations of ethanol. Drying was carried out at the critical point of CO2 in a Samdry 780 apparatus (USA). Next, they were evaporated with gold in a Denton Vacuum Desk (USA). Finally, the samples were observed and micrographed using a JSM 6510LB-JEOL microscope at 30 keV.
Promastigotes were washed with PBS and fixed with 2.5% glutaraldehyde solution for 1 h at 4 °C. They were then fixed with a solution of 1% OsO4 in the same buffer at 4 °C and in darkness for 1 h. Promastigotes were washed with PBS at RT and dehydrated in an ethanolic solution in increasing order by up to 100%. They were then included in the epoxy resin using specific molds for polymerization and maintained at 60 °C for a minimum period of 72 h. The blocks were cut with an ultramicrotome (Reichert Jung, Austria) into thin sections. The slices were stained with uranyl acetate and lead citrate and subsequently micrographed using a JEM 1400 transmission electron microscope (JEOL, Ltd., Tokyo, Japan).

Leishmania spp. [9] = assay: Antileishmanial activity, species not separated (pooled statement or literature); assay type: cell-based; conditions: all Leishmania species; active = IC50 ≤ 1 μM and SI ≥ 10
Leishmania spp. [10] = conditions: promastigote stage, drug used in the clinic; cited from earlier work
[11] = test system: amastigotes of L. amazonensis; conditions: cited from earlier work
[12] = Leishmania mexicana, read-out: IC50 ± SD, promastigotes, L. mexicana, 72 h
[13] = BALB/c, mouse, peritoneal macrophages
[14] = Leishmania infantum, promastigotes, L. infantum
[15] = Leishmania amazonensis, intracellular amastigotes, L. amazonensis
[16] = Leishmania infantum, intracellular amastigotes, L. infantum
[17] = intracellular amastigotes, L. infantum
[18] = Leishmania amazonensis, promastigotes, L. amazonensis

Structure (SMILES)	IC50 [4, 12]	EC50 [7]	CC50 at 48 h [1, 13]	IC50 [3, 14]	EC50 [6, 16]	IC50 [2, 18]	also measured
C[C@@H]1[C@H](O)[C@@H](C)/C=C/C=C/C=C/C=C/C=C/C=C/C=C/[C@H](O[C@@H]2O[C@H](C)[C@@H](O)[C@H](N)[C@@H]2O)C[C@@H]2O[C@](O)(C[C@@H](O)C[C@@H](O)[C@H](O)CC[C@@H](O)C[C@@H](O)CC(=O)O[C@H]1C)C[C@H](O)[C@H]2C(=O)O [AmB, Amphotericin B, reference compound]	0.046 ± 0.012 µM	0.036 ± 0.008 µM					CC50 at 48 h [1]: 5.8 ± 0.5 µM; IC50 ([2]; Leishmania amazonensis): 0.03 ± 0.01 µM; IC50 ([3]; Leishmania infantum): 0.28 ± 0.01 µM; EC50 ([5]; Leishmania amazonensis): 0.034 ± 0.006 µM; EC50 ([6]; Leishmania infantum): 0.6 ± 0.21 µM
CN(C)CCOc1nn(Cc2ccccc2)c2ccc([N+](=O)[O-])cc12 [NV4]	2.3 ± 0.4 µM		67.1 ± 8.9 µM	≤ 1 µM	≤ 5 µM		IC50 ([3]; promastigotes, L. infantum): 0.52 ± 0.05 µM; EC50 [5, 15]: 12.3 ± 0.7 µM; EC50 [6, 17]: 3.42 ± 1.8 µM
CN(C)CCCOc1nn(Cc2ccccc2)c2ccc([N+](=O)[O-])cc12 [NV6]			61 ± 6.9 µM	≤ 1 µM	≤ 5 µM		IC50 ([3]; promastigotes, L. infantum): 0.69 ± 0.063 µM; EC50 [6, 17]: 3.79 ± 1.46 µM
O=[N+]([O-])c1ccc2c(c1)c(OCCN1CCCCC1)nn2Cc1ccccc1 [NV7]		3.1 ± 1.05 µM	24.4 ± 6.7 µM		12.8 ± 0.13 µM		EC50 [5, 15]: 5.61 ± 0.69 µM
O=[N+]([O-])c1ccc2c(c1)c(OCCCN1CCCCC1)nn2Cc1ccccc1 [NV8]			23.2 ± 5 µM				Structural damage, scanning electron microscopy ([8]; L. amazonensis promastigotes treated at IC50, ½ IC50, ¼ IC50): the bodies were completely swollen and spheroidal in appearance; Ultrastructural damage, transmission electron microscopy ([8]; L. amazonensis promastigotes, 72 h of incubation at IC50, ½ IC50, ¼ IC50): most of the parasites are atypical; many are swollen or deformed and present large cytosolic vacuoles
NCCCOc1nn(Cc2ccccc2)c2ccc([N+](=O)[O-])cc12 [NV9]	2.8 ± 3 µM		47.9 ± 10.4 µM	≤ 1 µM	9.71 ± 0.4 µM	≤ 1 µM	IC50 ([2]; promastigotes, L. amazonensis): 0.81 ± 0.17 µM; IC50 ([3]; promastigotes, L. infantum): 0.59 ± 0.16 µM
NCCOc1nn(Cc2ccccc2)c2ccc([N+](=O)[O-])cc12 [NV10]	4.5 ± 0.5 µM		46.7 ± 7.7 µM	≤ 1 µM		≤ 1 µM	IC50 ([2]; promastigotes, L. amazonensis): 0.99 ± 0.14 µM; IC50 ([3]; promastigotes, L. infantum): 0.93 ± 0.27 µM; EC50 [5, 15]: ≤ 5 µM; EC50 ([5]; intracellular amastigotes, L. amazonensis): 4.35 ± 0.9 µM
O=[N+]([O-])c1ccc2c(c1)c(OCCBr)nn2Cc1ccccc1 [NV11]	9.38 ± 0.13 µM			20.4 ± 1.3 µM		20.7 ± 1.38 µM	Classification against promastigotes (Leishmania spp. [9]): inactive
O=[N+]([O-])c1ccc2c(c1)c(OCCCCCBr)nn2Cc1ccccc1 [NV12]	2.8 ± 1.1 µM			32.96 ± 0.25 µM		2.88 ± 1.47 µM	Classification against promastigotes (Leishmania spp. [9]): inactive
CNCCOc1nn(Cc2ccccc2)c2ccc([N+](=O)[O-])cc12 [NV13]		11.6 ± 0.7 µM	61.4 ± 9.4 µM		16.2 ± 0.54 µM	≤ 1 µM	IC50 ([2]; promastigotes, L. amazonensis): 0.82 ± 0.27 µM; EC50 [5, 15]: 5.66 ± 0.53 µM
CN(C)CCCCCOc1nn(Cc2ccccc2)c2ccc([N+](=O)[O-])cc12 [NV14]		8.2 ± 0.2 µM	2.5 ± 0.7 µM	0.93 ± 0.18 µM		0.5 ± 0.22 µM	
CNCCCCCOc1nn(Cc2ccccc2)c2ccc([N+](=O)[O-])cc12 [NV15]		1.53 ± 0.13 µM	5.6 ± 2.5 µM	1.27 ± 0.06 µM		1.88 ± 1.34 µM	
O=[N+]([O-])c1ccc2c(c1)c(OCCCCCN1CCCCC1)nn2Cc1ccccc1 [NV16]	≤ 1 µM	4.29 ± 0.48 µM	21.1 ± 7.1 µM	1.41 ± 0.03 µM			IC50 ([4]; read-out: IC50 ± SD, promastigotes, L. mexicana): 0.5 ± 0.1 µM
NCCCCCOc1nn(Cc2ccccc2)c2ccc([N+](=O)[O-])cc12 [NV17]	2.9 ± 0.1 µM		7.74 ± 3 µM		11.8 ± 1.04 µM	1.01 ± 0.39 µM	
CCCCCCCCCCCCCCCCOP(=O)([O-])OCC[N+](C)(C)C [miltefosine]							IC50 (Leishmania spp. [10]): 50.7 µM
N=C(N)c1ccc(OCCCCCOc2ccc(C(=N)N)cc2)cc1 [pentamidine]							IC50 (Leishmania spp. [10]): 30 µM
c1ccc2ncccc2c1 [quinoline]							EC50 [11]: 0.54 µM
C[C@@H](c1nc(-c2ccc(C#N)cc2)cs1)[C@](O)(Cn1cncn1)c1ccc(F)cc1F [ravuconazole]							EC50 [11]: 5.11 µM
